pIC50: −log10 of the molar value. In brackets after ≈: the same amount, converted by molar mass. Where two headings read alike, the source gives them in different places. One block for each compound: values may come before it.
How the values were obtained:
[1] = tested on: Staphylococcus epidermidis; experiment: Bacterial growth assay and MIC determination, S. epidermidis; assay type: cell-based; details: Staphylococcus epidermidis
Experimental: (§1) Strains of Escherichia coli, Staphylococcus aureus and Staphylococcus epidermidis, were grown overnight in 1% Bacto tryptone medium (BD, Sparks, Md.). Streptococcus pyogenes was grown overnight in Bacto Todd Hewitt Broth medium (BD, Sparks, Md.). Cultures were then diluted 1:1,000 in fresh assay medium supplemented with or without 20% fetal bovine serum (FBS; HyClone, Celbio, Logan, Utah) and added to 96-well sterile enzyme-linked immunosorbent assay (ELISA) plates (100 μl per well). The compounds to be tested were diluted in the medium without serum and added to the bacteria (100 μl per well). Plates were incubated at 37° C., and bacterial growth was monitored over time by reading the optical density at 490 nm using a microplate reader (model 450; Bio-Rad Laboratories Inc., Hercules, Calif.). Streptococcus pneumoniae strains were grown to mid-log phase (OD620 of 0.3) and stored in 15% glycerol at […] till further use. Minimal inhibitory concentration (MIC) of antibiotics was determined according to standard procedures. Bacteria were diluted 10-fold in Mueller-Hinton medium (BD, Sparks, Md.) and added to 96-well sterile ELISA plates (150 μl per well). The compounds to be tested were diluted in the medium without serum and added to the bacteria (150 μl per well). Plates were incubated overnight at 37° C. in 5% CO2. The MIC was defined as the lowest concentration of compound at which no growth was visible with the naked eye.

[2] = tested on: Streptococcus pyogenes; experiment: Bacterial growth assay and MIC determination, S. pyogenes; assay type: cell-based; details: Streptococcus pyogenes; S. pyogenes, serum −; read-out: MIC
Experimental: as §1

[3] = tested on: Streptococcus pneumoniae; experiment: MIC determination, S. pneumoniae; assay type: cell-based; details: Streptococcus pneumoniae; S. pneumoniae, serum −; read-out: MIC
Experimental: Streptococcus pneumoniae strains were grown to mid-log phase (OD620 of 0.3) and stored in 15% glycerol at […] till further use. Minimal inhibitory concentration (MIC) of antibiotics was determined according to standard procedures. Bacteria were diluted 10-fold in Mueller-Hinton medium (BD, Sparks, Md.) and added to 96-well sterile ELISA plates (150 μl per well). The compounds to be tested were diluted in the medium without serum and added to the bacteria (150 μl per well). Plates were incubated overnight at 37° C. in 5% CO2. The MIC was defined as the lowest concentration of compound at which no growth was visible with the naked eye.

[4] = tested on: transgenic P. falciparum NF54 strain that expresses a luciferase reporter gene, in Anopheles stephensi mosquitoes; experiment: Standard Membrane Feeding Assay (SMFA), luciferase reporter; assay type: in vivo, Plasmodium falciparum; details: for pIC50: indirect mode of the SMFA
Experimental: To assess the effect of a reduction in gametocyte viability and or capacity to form a gamete on actual transmission of the parasites, Standard Membrane Feeding Assays (SMFA) were performed using a transgenic P. falciparum NF54 strain that expresses a luciferase reporter gene from a hsp70 promoter. Parasite cultures showing ˜3% mature gametocytes were checked for the ability to show exflagellation after addition of xanthurenic acid to a final concentration of 40 μM. Infectivity of cultures showing positive exflagellation was tested in a ‘prefeed’ experiment as described previously (Antimicrob Agents Chemother, 2012. 56(7): p. 3544-8). Cultures showing development of retorts and ookinetes in the mosquito midgut were selected for testing of compounds. In the indirect mode of the assay, gametocytes were pre-incubated with compound prior to mosquito feeding. To this end, 40 μl compound diluted in parasite culture medium was added to 360 μl of parasite culture and incubated for 24 hrs at 37° C. in Eppendorf tubes (0.1% DMSO final concentration). Hereafter, 300 μl was added to 180 μl of packed red blood cells and centrifuged for 20 seconds at 10,000 g. After carefully aspirating the supernatant, 200 μl of human serum type A was added to the pellet. Finally, 300 μl was immediately injected into an individual membrane-covered minifeeder, where 50 Anopheles stephensi mosquitoes of 1-to-5-days old were allowed to feed for 10 minutes and non-fed mosquitoes were removed from the cage. Eight days after feeding, 20 mosquitoes were sacrificed and parasite luciferase activity was measured as described previously (Stone, J Infect Dis. 2014 in press). For the direct SMFA, 300 μl parasite culture was added to 180 μl red blood cells, centrifuged for 20 seconds at 10,000 g and the supernatant was carefully aspirated. Meanwhile, 10 μl of compound diluted in incomplete medium was added to 490 μl human serum type A (0.1% DMSO final). 200 μl of this compound containing human serum was added to the pellet, which was subsequently used for the SMFA as described above. For dose response analyses, compounds were diluted in DMSO with subsequent dilution in culture medium to a final DMSO concentration of 0.1%. Controls included vehicle (0.1% DMSO) and DHA at its approximate IC90 (10 μM). Data were analyzed by logistic regression using the formula: Y=Bottom+(Top−Bottom)/(1+10̂((Log IC50−X)*HillSlope)) and a least squares method to find the best fit.

[5] = tested on: Plasmodium berghei strain 676c11 (PbGFP-Luc); experiment: In vivo rodent malaria model; details: female Wistar rats, 100 mg/kg orally three times a day, day 5-8
Description: Female mice (C57 Black 6, 9-10 weeks of age at the start of the experiment) and female rats (Wistar, 150-200 grams at the beginning of the experiment) were housed under standard conditions and experiments were approved by the institutional ethical committee on animal care and experimentation of Radboud University Medical Centre (Nijmegen).
To test our compounds in an in vivo malaria model we used a well described rodent malaria model (Zuckerman and Yoeli, J Infect Dis. 94, 225-36). First, donor mice were infected by 0.2 ml cryopreserved infected blood stocks containing the transgenic Plasmodium berghei strain 676c11 (PbGFP-Luc). After four days the mice were sacrificed and their blood was collected. The parasitemia in the blood from the mice was calculated as percentage of infected red blood cells (RBC) by Giemsa-stained blood smears. Infected blood was diluted to 5×10^7 parasites per ml and 0.2 ml was i.p. injected in rats (inoculation of 10′ parasites per rat). Treatment with chloroquine (6 mg/kg), CXP18.6-017 (100 mg/kg) and CXP18.6-052 (100 mg/kg) started 5 days post inoculation and where given orally three times a day until day eight. From day 5 blood samples were collected and parasitemia was determined by analysis of Giemsa-stained blood smears. The infection and treatment regimes were well tolerated by the animals.

[6] = tested on: S. aureus (SA), S. epidermidis (SE), S. pyogenes (SP), S. pneumoniae (SPn); experiment: MIC for most sensitive bacterial species (panel); assay type: cell-based; details: Table 1, no species named, read-out: MIC (μg/ml) for most sensitive bacterial species
Experimental: as §1

[7] = Table 1, most sensitive species S. epidermidis (SE), read-out: MIC (μg/ml) for most sensitive bacterial species
[8] = 24 hrs pre-incubation, read-out: IC50 on the average luciferase intensity
[9] = read-out: IC50 on parasite prevalence (percentage of infected mosquitoes)

MIC [1, 7]: 16 µg/mL (≈ 49.6 µM)
Structure (SMILES): CC(C)(CO)[C@@H](O)C(=O)NCCNC(=O)CCc1ccccc1 [CXP18.6-006]

Structure (SMILES): CC(C)(CO)[C@@H](O)C(=O)NCCNC(=O)CCc1ccccc1F [CXP18.6-017]
MIC ([1]; S. epidermidis, serum −, read-out: MIC): 32 µg/mL (≈ 94 µM) | MIC [1, 7]: 2 µg/mL (≈ 5.88 µM) | MIC [2]: 8 µg/mL (≈ 23.5 µM) | MIC [3]: > 32 µg/mL | inhibitory effect in the indirect mode compared with the direct mode ([4]; gametocytes pre-exposed prior to mosquito feeding): stronger | luciferase intensity in the direct mode of the assay ([4]; in comparison with the DMSO control): reduced luciferase intensity | pIC50 [4, 8]: 7.70 | pIC50 [4, 9]: 6.75 | parasitemia [5]: reduced parasitemia with similar kinetics as found for chloroquine

Structure (SMILES): Cc1ccc(CCC(=O)NCCNC(=O)[C@H](O)C(C)(C)CO)cc1 [CXP18.6-026]
MIC ([6]; tested for SA, SE, SP and SPn): > 32 µg/mL | pIC50 [4, 8]: 6.97 | pIC50 [4, 9]: 6.43

Structure (SMILES): CC(C)(CO)[C@@H](O)C(=O)NCCNC(=O)CCc1cccnc1 [CXP18.6-052]
MIC ([6]; Streptococcus pneumoniae, marked *: not tested for S. pneumoniae): > 32 µg/mL | parasitemia [5]: significant, albeit partial, reduction of parasitemia
